In general, EC50 refers to the midpoint of the concentration-response curve. Broadly, the CC50 is the concentration that lowers cell viability or growth by half. A higher CC50 goes with better tolerance by the cells.

The structures appear in SMILES notation.

EC50 and CC50 data for two molecules are collected here from ChEMBL document CHEMBL1133316, “Synthesis and antiviral activity of acyclovir-5'-(phenyl methoxy alaninyl) phosphate as a possible membrane-soluble nucleotide prodrug” (Bioorg Med Chem Lett, 2000).

Experiment [1] has as its system MRC5. Description: Compound was tested for inhibition against Varicella zoster virus(VZV) infected MRC5 cells. It counts as functional, cell-based. The note with it: Homo sapiens.
In experiment [2] the test system is MRC5. Description: Compound was tested for inhibition against human cytomegalovirus (HCMV) in MRC-5 cells. It counts as functional, cell-based.
In experiment [3] the test system is Vero. Description: Compound was tested for inhibition against herpes simplex virus (HSV-2) infected vero cells. The settings on record: Chlorocebus sabaeus. The format is functional, cell-based.
In experiment [4] the test system is Vero. Description: Compound was tested for cytotoxic activity uninfected vero cells. The settings on record: Chlorocebus sabaeus. It counts as functional.
In experiment [5] the test system is MRC5. The experiment in a line: Compound was tested for inhibition against varicella zoster virus(VZV) infected MRC5 cells. The settings on record: Homo sapiens.

As for `COC(=O)C(C)NP(=O)(OCCOCn1cnc2c(O)nc(N)nc21)Oc1ccccc1` (stereo not drawn), the results for the EC50 in experiment [1], in experiment [2] and in experiment [3] were 16 µM, 12 µM and over 100 µM, respectively. This molecule also yielded a CC50 in experiment [4] of over 5 µM.
With `Nc1nc2c(ncn2COCCO)c(=O)[nH]1` [ACYCLOVIR], the EC50 in experiment [2] stood at 50 µM; in experiment [5], 5 µM; in experiment [3], 3 µM. The molecule also returned a CC50 in experiment [4] of over 5 µM.
